Experimental findings from patent US20230286973A1, “PROTEIN SECRETION INHIBITORS” (KEZAR LIFE SCIENCES, priority 2020, published 2023) are described below.

A word on the EC50: it is the concentration needed to bring the measured effect to its halfway point.

Series [1] deals with PD1-ss+10aa/Gaussia Luciferase. The series can be described thus: Dox-Induced PD1-ss-Gluc Assay. Format: cell-based. The conditions noted are these: 24 hr Dox induction; 293FRT/TO cells; read-out: 24 hr Dox Inducible PD1ssGluc 293FRT/TO: Mean IC50. The method in brief: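 The cell line was made by transfecting Flp-In 293 T-REx cells with a PD1 signal sequence+10aa–Gaussia luciferase fusion under T-REx control and selecting with hygromycin and blasticidin. Cells were seeded, and next day compound plus doxycycline was added at 37 °C, 5% CO2.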

Series [2] concerns TNFα-FL/Gaussia Luciferase. Briefly: Dox Induced TNFα-FL-Gluc Assay. Format: cell-based. To be noted: for IC50: 24 hr Dox induction, 293FRT/TO cells, read-out: 24 hr Dox Inducible TNFaFLGluc 293FRT/TO: Mean IC50; for 24 hr Dox Inducible TNFaFLGluc 293FRT/TO: TNF/PD1: ratio of TNFaFLGluc IC50 to PD1ssGluc IC50. The method in brief:
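Cells are seeded one day ahead, then treated with compound plus doxycycline at 37 °C, 5% CO2. The stable Flp-In 293 T-REx line expresses full-length TNFα (amino acids 1-233) with Gaussia luciferase fused to its 3′ end, inducibly via T-REx.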

The test system of series [3] is HER3-ss+4aa/Gaussia Luciferase. Briefly: Dox-Induced Her3-ss-Gluc Assay. Format: cell-based. The conditions noted are these: 24 hr Dox induction; 293FRT/TO cells; read-out: 24 hr Dox Inducible Her3(ss + 4)Gluc 293FRT/TO: Mean IC50. The method in brief: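 Expression of a Gaussia luciferase reporter carrying the HER3 signal sequence plus 4 amino acids is induced by doxycycline in stably transfected Flp-In 293 T-REx cells. Compounds are added with doxycycline at 37° C., 5% CO2. Undefined stereocentres denote stereoisomer mixtures.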

For series [4], the system named is IL-2-FL/Gaussia Luciferase. The series can be described thus: Dox Induced IL2-FL-Gluc Assay. The format is cell-based. To be noted: for IC50: 24 hr Dox induction, 293FRT/TO cells, read-out: 24 hr Dox Inducible IL2FLGluc 293FRT/TO: Mean IC50; for 24 hr Dox Inducible IL2FLGluc 293FRT/TO: IL2/PD1: ratio of IL2FLGluc IC50 to PD1ssGluc IC50. The method in brief: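 Reporter is Gaussia luciferase fused to the 3′ end of full-length IL-2 (aa 1-153), expressed from a doxycycline-inducible T-REx construct in stably selected Flp-In 293 cells. Compounds were co-added with doxycycline and incubated at 37° C, 5% CO2.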

The test system of series [5] is multiple myeloma cell line NCI-H929. The series can be described thus: H929 Cell Viability Assay. The format is cell-based, human. To be noted: Homo sapiens, NCI-H929, 48 h, NCI-H929 cells, Celltiter-Glo. The method in brief: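 Plate the myeloma cells in RPMI 1640 with 10% FBS, add serially diluted compound, incubate for 48 hours at 37° C, then add CellTiter-Glo and read luciferase signal.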
A general note: Cellular ATP, detected with luciferase, serves as a proxy for viable cell number.

Series [6] deals with multiple myeloma cell line U266B1. The series can be described thus: U266 Cell Viability Assay. The format is cell-based, human. The conditions noted are these: Homo sapiens, U-266, 48 h, U266B1 cells, Celltiter-Glo. The method in brief: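 48 h treatment, 37° C./5% CO2, RPMI 1640 + 10% FBS; viability by CellTiter-Glo luminescence.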
Series [7] can be described thus: Liver Microsome Stability Assay (rat). To be noted: rat liver microsomes, with NADPH, 1.0 uM compound.
Method: (§1) Stability of a compound was assessed in the presence of liver microsomes from various sources—mouse, rat, monkey and human liver microsomes. 1.0 uM compound, 0.4% DMSO in 0.1 M Potassium Phosphate with 1.0 mg/mL liver microsomes, were incubated at 37° C. with or without 1 mM NADPH. The samples were quenched at 0, and 30 minutes.
Series [8] can be described thus: Liver Microsome Stability Assay (mouse). The conditions noted are these: mouse liver microsomes, with NADPH, 1.0 uM compound. A general note: Liver microsomes are a subcellular fraction often used to study metabolism.
Method: as §1
Series [9] can be described thus: Liver Microsome Stability Assay (human). To be noted: human liver microsomes, with NADPH, 1.0 uM compound.
Method: as §1
A short description of series [10]: Liver Microsome Stability Assay (monkey). To be noted: monkey liver microsomes, with NADPH, 1.0 uM compound.
Method: as §1

Turning to `CS(=O)(=O)N1CC(Oc2ccc(N3CCC[C@@H]3c3csc(NC(=O)c4cccn4Cc4ccnc(F)c4)n3)cc2)C1` [Compound A132, (R)-1-((2-fluoropyridin-4-yl)methyl)-N-(4-(1-(4-((1-(methylsulfonyl)azetidin-3-yl)oxy)phenyl)pyrrolidin-2-yl)thiazol-2-yl)-1H-pyrrole-2-carboxamide], the IC50 in [1] came to 57.3 nM; in series [2], 1060 nM; in series [3] it was 95 nM; in series [4], 105 nM. Also, the “24 hr Dox Inducible TNFaFLGluc 293FRT/TO: TNF/PD1” value in series [2] was found to be 18.5. Further, the “24 hr Dox Inducible IL2FLGluc 293FRT/TO: IL2/PD1” value in series [4] is listed as 1.8. Besides, the values for the EC50 in series [5] and in [6] were 2520 nM and more than 25 µM, respectively. The “Liver Microsome Stability (Multiple Species): Rat - % Remaining after 30 min w/NADPH” value in [7] amounted to 47.1%. The “Liver Microsome Stability (Multiple Species): Mouse - % Remaining after 30 min w/NADPH” value in [8] is 34.6%. Besides, the “Liver Microsome Stability (Multiple Species): Human - % Remaining after 30 min w/NADPH” value in [9] amounted to 15.1%. For the same compound, the “Liver Microsome Stability (Multiple Species): Monkey - % Remaining after 30 min w/NADPH” value in series [10] is 8.42%.
For `CC(=O)N1CCC(Oc2ccc(N3CCC[C@@H]3c3csc(NC(=O)c4cccn4Cc4ccnc(F)c4)n3)c(C#N)c2)CC1` [Compound A133, (R)-N-(4-(1-(4-((1-acetylpiperidin-4-yl)oxy)-2-cyanophenyl)pyrrolidin-2-yl)thiazol-2-yl)-1-((2-fluoropyridin-4-yl)methyl)-1H-pyrrole-2-carboxamide], the IC50 in series [1] came out at 61 nM; in series [2], 893 nM; in series [3] it was 64.2 nM; in [4] it was 81.7 nM. Further, the “24 hr Dox Inducible TNFaFLGluc 293FRT/TO: TNF/PD1” value in series [2] is listed as 14.6. The “24 hr Dox Inducible IL2FLGluc 293FRT/TO: IL2/PD1” value in [4] came to 1.3. The concentration giving a half-maximal response (EC50) in [5] was 2010 nM; in series [6] it was more than 25 µM. Moreover, in series [7], the “Liver Microsome Stability (Multiple Species): Rat - % Remaining after 30 min w/NADPH” value came to 1.42%. For the same compound, in series [8], the “Liver Microsome Stability (Multiple Species): Mouse - % Remaining after 30 min w/NADPH” value came to 0.98%. Also, the “Liver Microsome Stability (Multiple Species): Human - % Remaining after 30 min w/NADPH” value in [9] was 0.61%. Moreover, the “Liver Microsome Stability (Multiple Species): Monkey - % Remaining after 30 min w/NADPH” value in [10] is 0.15%.
On to `O=C(Nc1nc([C@H]2CCCN2c2ccc(OCCO)cc2)cs1)c1cccn1Cc1ccnc(F)c1` [Compound A134, (R)-1-((2-fluoropyridin-4-yl)methyl)-N-(4-(1-(4-(2-hydroxyethoxy)phenyl)pyrrolidin-2-yl)thiazol-2-yl)-1H-pyrrole-2-carboxamide], for which the IC50 was 27.3 nM in series [1], 526 nM in [2], 47.8 nM in series [3] and 42.4 nM in series [4]. Further, the “24 hr Dox Inducible TNFaFLGluc 293FRT/TO: TNF/PD1” value in series [2] came to 19.3. The “24 hr Dox Inducible IL2FLGluc 293FRT/TO: IL2/PD1” value in series [4] is given as 1.6. The EC50 is 849 nM in [5] and more than 25 µM in series [6]. Besides, the “Liver Microsome Stability (Multiple Species): Rat - % Remaining after 30 min w/NADPH” value in series [7] is recorded as 13.6%. In series [8], the “Liver Microsome Stability (Multiple Species): Mouse - % Remaining after 30 min w/NADPH” value was found to be 2.18%. In [9], the “Liver Microsome Stability (Multiple Species): Human - % Remaining after 30 min w/NADPH” value turned out to be 19.3%. The “Liver Microsome Stability (Multiple Species): Monkey - % Remaining after 30 min w/NADPH” value in series [10] was found to be 13.5%.
For `NC(=O)N1CCC(Oc2ccc(N3CCC[C@@H]3c3csc(NC(=O)c4cccn4Cc4ccnc(F)c4)n3)cc2)CC1` [Compound A135, (R)-4-(4-(2-(2-(1-((2-fluoropyridin-4-yl)methyl)-1H-pyrrole-2-carboxamido)thiazol-4-yl)pyrrolidin-1-yl)phenoxy)piperidine-1-carboxamide], the IC50 in [1] amounted to 15.2 nM; in series [2] it was 512 nM; in [3], 34.2 nM; in series [4] it was 52.5 nM. In addition, in series [2], the “24 hr Dox Inducible TNFaFLGluc 293FRT/TO: TNF/PD1” value is given as 33.6. Besides, the “24 hr Dox Inducible IL2FLGluc 293FRT/TO: IL2/PD1” value in series [4] is recorded as 3.4. The EC50 in series [5] is 692 nM; in [6], more than 25 µM. Also, in series [7], the “Liver Microsome Stability (Multiple Species): Rat - % Remaining after 30 min w/NADPH” value amounted to 57.9%. Besides, the “Liver Microsome Stability (Multiple Species): Mouse - % Remaining after 30 min w/NADPH” value in [8] was determined as 56.5%. In series [9], the “Liver Microsome Stability (Multiple Species): Human - % Remaining after 30 min w/NADPH” value is reported as 67.1%. In addition, the “Liver Microsome Stability (Multiple Species): Monkey - % Remaining after 30 min w/NADPH” value in series [10] came out at 32.1%.
Regarding `CNC(=O)N1CCC(Oc2ccc(N3CCC[C@@H]3c3csc(NC(=O)c4cccn4Cc4ccnc(F)c4)n3)cc2)CC1` [Compound A136, (R)-4-(4-(2-(2-(1-((2-fluoropyridin-4-yl)methyl)-1H-pyrrole-2-carboxamido)thiazol-4-yl)pyrrolidin-1-yl)phenoxy)-N-methylpiperidine-1-carboxamide], the IC50 worked out at 59.6 nM in series [1], 1010 nM in [2], 86.7 nM in series [3] and 186 nM in series [4]. Also, in series [2], the “24 hr Dox Inducible TNFaFLGluc 293FRT/TO: TNF/PD1” value came out at 16.9. Further, the “24 hr Dox Inducible IL2FLGluc 293FRT/TO: IL2/PD1” value in series [4] worked out at 3.1. For the same compound, the values for the EC50 in series [5] and in series [6] were 2410 nM and more than 25 µM, respectively. Moreover, the “Liver Microsome Stability (Multiple Species): Rat - % Remaining after 30 min w/NADPH” value in series [7] was 15.7%. The “Liver Microsome Stability (Multiple Species): Mouse - % Remaining after 30 min w/NADPH” value in series [8] came out at 2.63%. Besides, in [9], the “Liver Microsome Stability (Multiple Species): Human - % Remaining after 30 min w/NADPH” value is recorded as 15.6%. Also, the “Liver Microsome Stability (Multiple Species): Monkey - % Remaining after 30 min w/NADPH” value in series [10] was 0.44%.
With `CN(C)C(=O)N1CCC(Oc2ccc(N3CCC[C@@H]3c3csc(NC(=O)c4cccn4Cc4ccnc(F)c4)n3)cc2)CC1` [Compound A137, (R)-4-(4-(2-(2-(1-((2-fluoropyridin-4-yl)methyl)-1H-pyrrole-2-carboxamido)thiazol-4-yl)pyrrolidin-1-yl)phenoxy)-N,N-dimethylpiperidine-1-carboxamide], the IC50 in [1] came out at 32.2 nM; in series [2], 566 nM; in series [3], 51.5 nM; in series [4], 61.4 nM. For the same compound, the “24 hr Dox Inducible TNFaFLGluc 293FRT/TO: TNF/PD1” value in series [2] is on record as 17.6. In addition, the “24 hr Dox Inducible IL2FLGluc 293FRT/TO: IL2/PD1” value in series [4] is listed as 1.9. In addition, the EC50 is 948 nM in series [5] and more than 25 µM in [6]. Also, the “Liver Microsome Stability (Multiple Species): Rat - % Remaining after 30 min w/NADPH” value in series [7] was 24.2%. For the same compound, in series [8], the “Liver Microsome Stability (Multiple Species): Mouse - % Remaining after 30 min w/NADPH” value is listed as 1.78%. Besides, in series [9], the “Liver Microsome Stability (Multiple Species): Human - % Remaining after 30 min w/NADPH” value is given as 4.35%. The “Liver Microsome Stability (Multiple Species): Monkey - % Remaining after 30 min w/NADPH” value in series [10] was found to be 2.57%.
On to `O=C(Nc1nc([C@H]2CCCN2c2ccc(OC3CCS(=O)(=O)CC3)cc2)cs1)c1cccn1Cc1ccnc(F)c1` [Compound A138, (R)-N-(4-(1-(4-((1,1-dioxidotetrahydro-2H-thiopyran-4-yl)oxy)phenyl)pyrrolidin-2-yl)thiazol-2-yl)-1-((2-fluoropyridin-4-yl)methyl)-1H-pyrrole-2-carboxamide], for which the IC50 stood at 125 nM in series [1], 1600 nM in series [2], 167 nM in series [3] and 172 nM in [4]. For the same compound, the “24 hr Dox Inducible TNFaFLGluc 293FRT/TO: TNF/PD1” value in [2] was 12.8. The “24 hr Dox Inducible IL2FLGluc 293FRT/TO: IL2/PD1” value in series [4] worked out at 1.4. In addition, the values for the EC50 in series [5] and in series [6] were 2570 nM and more than 25 µM, respectively. The “Liver Microsome Stability (Multiple Species): Rat - % Remaining after 30 min w/NADPH” value in [7] worked out at 37.2%. In series [8], the “Liver Microsome Stability (Multiple Species): Mouse - % Remaining after 30 min w/NADPH” value is listed as 25.2%. Besides, the “Liver Microsome Stability (Multiple Species): Human - % Remaining after 30 min w/NADPH” value in series [9] is reported as 25.1%. Besides, the “Liver Microsome Stability (Multiple Species): Monkey - % Remaining after 30 min w/NADPH” value in series [10] turned out to be 6.25%.
